Results reported in patent US8710233B2 (Gruenenthal GmbH, priority 2005, dated 2014).

Key:
[1] = biological target: T1, vanilloid receptor (VR1) (Homo sapiens, UniProt Q8NER1); test: FLIPR Ca2+ influx assay on CHO K1 cells transfected with the VR1 gene (pharmacological method II); type: cell-based; conditions: table 4; capsaicin; read-out: Ki (human) Cap.
T1 construct: expressed in transfected cells; host or cells: CHO K1 cells (ECACC), stably transfected

[2] = biological target: VR1/TRPV1 receptor (Homo sapiens, UniProt Q8NER1); test: IC50 (human) after pH stimulus; type: cell-based; conditions: for IC50: table 4
VR1/TRPV1 receptor, sequence (Q8NER1 whole entry): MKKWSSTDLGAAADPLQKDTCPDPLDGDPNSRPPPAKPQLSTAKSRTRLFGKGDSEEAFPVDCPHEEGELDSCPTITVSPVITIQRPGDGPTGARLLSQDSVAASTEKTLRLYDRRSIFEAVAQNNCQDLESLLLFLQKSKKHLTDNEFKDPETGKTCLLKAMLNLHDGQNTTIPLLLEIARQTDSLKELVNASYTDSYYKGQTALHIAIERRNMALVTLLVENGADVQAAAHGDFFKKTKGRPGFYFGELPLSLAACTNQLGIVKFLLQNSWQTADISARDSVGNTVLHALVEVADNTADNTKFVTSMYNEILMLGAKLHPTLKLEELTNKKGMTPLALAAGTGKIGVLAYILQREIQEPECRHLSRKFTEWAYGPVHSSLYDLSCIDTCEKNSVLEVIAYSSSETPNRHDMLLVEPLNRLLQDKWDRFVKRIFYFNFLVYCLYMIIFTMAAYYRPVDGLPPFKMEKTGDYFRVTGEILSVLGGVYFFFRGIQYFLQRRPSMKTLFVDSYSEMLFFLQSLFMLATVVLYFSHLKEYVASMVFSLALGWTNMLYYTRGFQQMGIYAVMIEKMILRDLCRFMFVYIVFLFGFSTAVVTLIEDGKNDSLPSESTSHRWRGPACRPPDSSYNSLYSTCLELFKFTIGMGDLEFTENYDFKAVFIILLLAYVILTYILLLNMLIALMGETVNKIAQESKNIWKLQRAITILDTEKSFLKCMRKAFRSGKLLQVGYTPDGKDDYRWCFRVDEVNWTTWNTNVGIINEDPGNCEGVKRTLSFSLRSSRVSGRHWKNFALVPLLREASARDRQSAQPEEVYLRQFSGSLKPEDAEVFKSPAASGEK

[3] = read-out: inhibition in percent, IC50 (human) after pH stimulus

T1 sequence (Q8NER1 whole entry): as above

Compound	Ki [1]	IC50 [2]	inhibition at 5 µM [2, 3]	inhibition at 10 µM [2, 3]	inhibition at 0.1 µM ([2]; @ 0.1 μM, read-out: inhibition in percent, IC50 (human) after pH stimulus)	inhibition at 1 µM ([2]; @ 1 μM, ne = no effect, read-out: inhibition in percent, IC50 (human) after pH stimulus)
CC(C(=O)NCc1ccc(C(F)(F)F)nc1OC1CCC(C(F)(F)F)CC1)c1ccc(NS(C)(=O)=O)c(F)c1 (stereo not shown) [Example 339, 2-(3-fluoro-4-methylsulfonamido-phenyl)-N-[6-trifluoromethyl-2-(4-trifluoromethyl-cyclohexyloxy)-pyridin-3-ylmethyl]-propionamide]	0.3 nM	14 nM				
CC(C(=O)NCc1ccc(C(F)(F)F)cc1N1CCN(C2CCCCC2)CC1)c1ccc(NS(C)(=O)=O)c(F)c1 (stereo not shown) [Example 319, N-[2-(4-cyclohexyl-piperazin-1-yl)-4-trifluoromethyl-benzyl]-2-(3-fluoro-4-methylsulfonamido-phenyl)-propionamide]	13.8 nM		38%	54%		
CC(C)CC(CC(C)C)Oc1nc(C(F)(F)F)ccc1CNC(=O)C(C)c1ccc(NS(C)(=O)=O)c(F)c1 (stereo not shown) [Example 337, 2-(3-fluoro-4-methylsulfonamido-phenyl)-N-[2-(1-isobutyl-3-methyl-butoxy)-6-trifluoromethyl-pyridin-3-ylmethyl]-propionamide]	0.7 nM		6%	30%		
CC(C(=O)NCc1ccc(C(F)(F)F)nc1CCc1ccc(F)cc1)c1ccc(NS(C)(=O)=O)c(F)c1 (stereo not shown) [Example 303, 2-(3-fluoro-4-methylsulfonamido-phenyl)-N-{2-[2-(4-fluoro-phenyl)-ethyl]-6-trifluoromethyl-pyridin-3-ylmethyl}-propionamide]	1.8 nM	76.2 nM				
CC(C(=O)NCc1ccc(C(C)(C)C)nc1N1CCCCCC1)c1ccc(NS(C)(=O)=O)c(F)c1 (stereo not shown) [Example 296, N-(2-azepan-1-yl-6-tert-butyl-pyridin-3-ylmethyl)-2-(3-fluoro-4-methansulfonylamino-phenyl)-propionamide]	0.9 nM	154 nM				
COCCCOc1nc(C(F)(F)F)ccc1CNC(=O)C(C)c1ccc(NS(C)(=O)=O)c(F)c1 (stereo not shown) [Example 355, 2-(3-fluoro-4-methylsulfonamido-phenyl)-N-[2-(3-methoxy-propoxy)-6-trifluoromethyl-pyridin-3-ylmethyl]-propionamide]	15.3 nM	2200 nM				
CC(C(=O)NCc1ccc(C(F)(F)F)cc1-c1cccnc1)c1ccc(NS(C)(=O)=O)c(F)c1 (stereo not shown) [Example 46, 2-(3-fluoro-4-(methylsulfonamido)phenyl)-N-(2-(pyridin-3-yl)-4-(trifluoromethyl)benzyl)propanamide]	59.4 nM		40%			
CCCCCc1nc(C(F)(F)F)ccc1CNC(=O)[C@H](C)c1ccc(NS(C)(=O)=O)c(F)c1 [Example 145, (R)-2-(3-fluoro-4-methylsulfonamido-phenyl)-N-(2-pentyl-6-trifluoromethyl-pyridin-3-ylmethyl)-propionamide]	78 nM			49%		
CC(C(=O)NCc1ccc(C(F)(F)F)nc1N1CC=C(c2ccccc2)CC1)c1ccc(NS(C)(=O)=O)c(F)c1 (stereo not shown) [Example 317, 2-(3-fluoro-4-methylsulfonamido-phenyl)-N-(4-phenyl-6′-trifluoromethyl-3,6-dihydro-2H-[1,2′]bipyridinyl-3′-ylmethyl)-propionamide]	1.7 nM	43 nM				
CC(C(=O)NCc1ccc(C(F)(F)F)nc1-c1ccc2cc[nH]c2c1)c1ccc(NS(C)(=O)=O)c(F)c1 (stereo not shown) [Example 275, 2-(3-fluoro-4-methylsulfonamido-phenyl)-N-[2-(1H-indol-6-yl)-6-trifluoromethyl-pyridin-3-ylmethyl]-propionamide]	20.3 nM	1190 nM				
CC(C(=O)NCc1ccc(C(F)(F)F)nc1N1C[C@@H](C)O[C@@H](C)C1)c1ccc(NS(C)(=O)=O)c(F)c1 (stereo partly shown) [Example 311, N-[2-(2,6-dimethyl-morpholin-4-yl)-6-trifluoromethyl-pyridin-3-ylmethyl]-2-(3-fluoro-4-methylsulfonamido-phenyl)-propionamide]	1.43 nM	1090 nM				
CCC/C=C/c1nc(C(F)(F)F)ccc1CNC(=O)C(C)c1ccc(NS(C)(=O)=O)c(F)c1 (stereo not shown) [Example 301, 2-(3-fluoro-4-methylsulfonamido-phenyl)-N-(2-pent-1-enyl-6-trifluoromethyl-pyridin-3-ylmethyl)-propionamide]	0.9 nM	102 nM				

The remaining lines, values ahead:

Ki [1]	IC50 [2]	inhibition at 5 µM [2, 3]	inhibition at 10 µM [2, 3]	inhibition at 0.1 µM ([2]; @ 0.1 μM, read-out: inhibition in percent, IC50 (human) after pH stimulus)	inhibition at 1 µM ([2]; @ 1 μM, ne = no effect, read-out: inhibition in percent, IC50 (human) after pH stimulus)	Compound
19.3 nM	1140 nM					CC(C(=O)NCc1ccc(C(F)(F)F)nc1NCC1CCN(C(=O)OC(C)(C)C)CC1)c1ccc(NS(C)(=O)=O)c(F)c1 (stereo not shown) [Example 342, 4-[(3-{[2-(3-fluoro-4-methylsulfonamido-phenyl)-propionylamino]-methyl}-6-trifluoromethyl-pyridin-2-ylamino)-methyl]-piperidine-1-carbonic acid tert-butyl ester]
0.7 nM			31%			CCCN(CCC)c1nc(C(F)(F)F)ccc1CNC(=O)C(C)c1ccc(NS(C)(=O)=O)c(C)c1 (stereo not shown) [Example 331, N-(2-dipropylamino-6-trifluoromethyl-pyridin-3-ylmethyl)-2-(4-methylsulfonamido-3-methyl-phenyl)-propionamide]
2.4 nM	159 nM					CC(C(=O)NCc1ccc(C(F)(F)F)nc1N1CC=C(c2ccc(F)cc2)CC1)c1ccc(NS(C)(=O)=O)c(F)c1 (stereo not shown) [Example 332, 2-(3-fluoro-4-methylsulfonamido-phenyl)-N-[4-(4-fluoro-phenyl)-6′-trifluoromethyl-3,6-dihydro-2H-[1,2′]bipyridinyl-3′-ylmethyl]-propionamide]
3.4 nM	342 nM					CC(C(=O)NCc1ccc(C(F)(F)F)nc1OCC1CCN(C(=O)OC(C)(C)C)CC1)c1ccc(NS(C)(=O)=O)c(F)c1 (stereo not shown) [Example 327, 4-(3-{[2-(3-fluoro-4-methylsulfonamido-phenyl)-propionylamino]-methyl}-6-trifluoromethyl-pyridin-2-yloxymethyl)-piperidine-1-carbonic acid tert-butyl ester]
14.8 nM	492 nM					CCOc1nc(C(C)(C)C)ccc1CNC(=O)C(C)c1ccc(NS(C)(=O)=O)c(F)c1 (stereo not shown) [Example 373, N-((6-tert-butyl-2-ethoxypyridin-3-yl)methyl)-2-(3-fluoro-4-(methylsulfonamido)phenyl)propanamide]
5.8 nM				4%	52%	COc1cc(OC)cc(-c2cc(C(F)(F)F)ccc2CNC(=O)C(C)c2ccc(NS(C)(=O)=O)c(F)c2)c1 (stereo not shown) [Example 350, N-(3′,5′-dimethoxy-5-trifluoromethyl-biphenyl-2-ylmethyl)-2-(3-fluoro-4-methylsulfonamido-phenyl)-propionamide]
5.6 nM	250 nM					COCCCOc1nc(C(C)(C)C)ccc1CNC(=O)C(C)c1ccc(NS(C)(=O)=O)c(F)c1 (stereo not shown) [Example 370, N-((6-tert-butyl-2-(3-methoxypropoxy)pyridin-3-yl)methyl)-2-(3-fluoro-4-(methylsulfonamido)phenyl)propanamide]
0.7 nM	99 nM					CC(C(=O)NCc1ccc(C(F)(F)F)nc1C1=CCCCC1)c1ccc(NS(C)(=O)=O)c(F)c1 (stereo not shown) [Example 334, N-(2-cyclohex-1-enyl-6-trifluoromethyl-pyridin-3-ylmethyl)-2-(3-fluoro-4-methylsulfonamido-phenyl)-propionamide]
